Tests used:
Format in all cases: biochemical
[1] = target: T1, VEGFR1 (Homo sapiens, UniProt P17948); test: recombinant kinase assay (ProQinase) at single […] concentration
T1 construct: gene FLT1

[2] = target: T2, PKD2 (Homo sapiens, UniProt Q9BZL6); test: kinase selectivity study (SignalChem) at single […] concentration
T2 construct: gene PRKD2
T2 sequence (Q9BZL6 1-878): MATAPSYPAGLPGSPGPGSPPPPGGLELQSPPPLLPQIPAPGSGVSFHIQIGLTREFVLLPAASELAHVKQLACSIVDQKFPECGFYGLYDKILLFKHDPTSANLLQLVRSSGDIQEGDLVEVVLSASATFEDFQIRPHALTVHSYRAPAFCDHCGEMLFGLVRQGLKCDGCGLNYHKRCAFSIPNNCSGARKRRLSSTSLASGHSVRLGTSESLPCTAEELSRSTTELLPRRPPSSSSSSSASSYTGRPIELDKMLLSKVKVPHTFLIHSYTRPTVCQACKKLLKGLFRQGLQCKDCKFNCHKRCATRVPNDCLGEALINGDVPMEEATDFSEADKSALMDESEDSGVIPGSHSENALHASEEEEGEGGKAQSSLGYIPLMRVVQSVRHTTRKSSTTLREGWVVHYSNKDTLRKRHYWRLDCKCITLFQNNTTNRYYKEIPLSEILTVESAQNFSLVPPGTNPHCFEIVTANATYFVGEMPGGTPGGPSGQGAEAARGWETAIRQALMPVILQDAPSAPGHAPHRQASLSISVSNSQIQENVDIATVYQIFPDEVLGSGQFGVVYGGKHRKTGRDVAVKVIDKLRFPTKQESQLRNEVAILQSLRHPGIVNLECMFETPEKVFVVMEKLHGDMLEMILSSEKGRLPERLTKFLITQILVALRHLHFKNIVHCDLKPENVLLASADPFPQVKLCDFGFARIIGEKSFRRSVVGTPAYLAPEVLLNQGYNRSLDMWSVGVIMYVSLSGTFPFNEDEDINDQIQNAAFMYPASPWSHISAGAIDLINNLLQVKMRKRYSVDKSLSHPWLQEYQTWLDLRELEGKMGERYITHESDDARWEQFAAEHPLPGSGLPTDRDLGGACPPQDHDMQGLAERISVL

[3] = target: T3, VEGFR2 (Homo sapiens, UniProt P35968); test: recombinant kinase assay (Transcreener ADP detection)
T3 construct: gene KDR
T3 sequence (P35968 20-1356): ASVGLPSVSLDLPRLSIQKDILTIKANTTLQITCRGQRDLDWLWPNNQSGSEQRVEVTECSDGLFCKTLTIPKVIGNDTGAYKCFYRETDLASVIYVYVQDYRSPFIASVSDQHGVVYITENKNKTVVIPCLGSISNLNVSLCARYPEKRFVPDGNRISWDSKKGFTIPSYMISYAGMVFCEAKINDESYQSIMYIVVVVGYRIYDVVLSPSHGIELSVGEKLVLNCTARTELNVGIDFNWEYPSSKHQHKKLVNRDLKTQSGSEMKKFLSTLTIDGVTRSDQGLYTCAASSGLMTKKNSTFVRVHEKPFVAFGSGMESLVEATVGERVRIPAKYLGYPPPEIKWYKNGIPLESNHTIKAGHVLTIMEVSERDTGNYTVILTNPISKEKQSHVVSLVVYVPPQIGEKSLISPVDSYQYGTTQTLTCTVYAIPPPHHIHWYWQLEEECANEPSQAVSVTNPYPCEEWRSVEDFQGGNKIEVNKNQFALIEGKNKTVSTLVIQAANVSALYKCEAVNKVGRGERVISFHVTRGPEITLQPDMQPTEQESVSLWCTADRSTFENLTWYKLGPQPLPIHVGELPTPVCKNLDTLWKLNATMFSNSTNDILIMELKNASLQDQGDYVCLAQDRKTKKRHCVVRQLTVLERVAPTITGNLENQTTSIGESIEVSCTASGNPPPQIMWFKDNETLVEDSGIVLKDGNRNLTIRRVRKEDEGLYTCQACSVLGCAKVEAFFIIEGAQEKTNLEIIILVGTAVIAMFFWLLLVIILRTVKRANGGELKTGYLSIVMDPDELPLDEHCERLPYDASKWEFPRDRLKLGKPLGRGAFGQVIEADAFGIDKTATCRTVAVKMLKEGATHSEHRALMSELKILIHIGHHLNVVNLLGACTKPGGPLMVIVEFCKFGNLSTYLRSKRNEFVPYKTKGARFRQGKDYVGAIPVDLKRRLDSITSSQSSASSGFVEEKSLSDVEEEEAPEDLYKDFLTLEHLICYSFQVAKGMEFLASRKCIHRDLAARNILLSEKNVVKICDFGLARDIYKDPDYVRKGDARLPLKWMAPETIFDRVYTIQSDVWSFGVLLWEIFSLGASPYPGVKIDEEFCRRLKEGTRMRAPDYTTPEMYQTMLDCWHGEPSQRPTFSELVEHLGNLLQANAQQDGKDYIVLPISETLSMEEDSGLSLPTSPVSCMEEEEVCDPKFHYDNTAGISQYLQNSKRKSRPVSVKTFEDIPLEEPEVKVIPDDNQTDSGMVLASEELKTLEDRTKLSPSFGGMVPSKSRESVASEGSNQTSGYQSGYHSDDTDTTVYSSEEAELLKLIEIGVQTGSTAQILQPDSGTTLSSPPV

[4] = target: T4, VEGFR3 (Homo sapiens, UniProt P35916); test: recombinant kinase assay (ProQinase) at single […] concentration
T4 construct: gene FLT4
T4 sequence (P35916 25-1363): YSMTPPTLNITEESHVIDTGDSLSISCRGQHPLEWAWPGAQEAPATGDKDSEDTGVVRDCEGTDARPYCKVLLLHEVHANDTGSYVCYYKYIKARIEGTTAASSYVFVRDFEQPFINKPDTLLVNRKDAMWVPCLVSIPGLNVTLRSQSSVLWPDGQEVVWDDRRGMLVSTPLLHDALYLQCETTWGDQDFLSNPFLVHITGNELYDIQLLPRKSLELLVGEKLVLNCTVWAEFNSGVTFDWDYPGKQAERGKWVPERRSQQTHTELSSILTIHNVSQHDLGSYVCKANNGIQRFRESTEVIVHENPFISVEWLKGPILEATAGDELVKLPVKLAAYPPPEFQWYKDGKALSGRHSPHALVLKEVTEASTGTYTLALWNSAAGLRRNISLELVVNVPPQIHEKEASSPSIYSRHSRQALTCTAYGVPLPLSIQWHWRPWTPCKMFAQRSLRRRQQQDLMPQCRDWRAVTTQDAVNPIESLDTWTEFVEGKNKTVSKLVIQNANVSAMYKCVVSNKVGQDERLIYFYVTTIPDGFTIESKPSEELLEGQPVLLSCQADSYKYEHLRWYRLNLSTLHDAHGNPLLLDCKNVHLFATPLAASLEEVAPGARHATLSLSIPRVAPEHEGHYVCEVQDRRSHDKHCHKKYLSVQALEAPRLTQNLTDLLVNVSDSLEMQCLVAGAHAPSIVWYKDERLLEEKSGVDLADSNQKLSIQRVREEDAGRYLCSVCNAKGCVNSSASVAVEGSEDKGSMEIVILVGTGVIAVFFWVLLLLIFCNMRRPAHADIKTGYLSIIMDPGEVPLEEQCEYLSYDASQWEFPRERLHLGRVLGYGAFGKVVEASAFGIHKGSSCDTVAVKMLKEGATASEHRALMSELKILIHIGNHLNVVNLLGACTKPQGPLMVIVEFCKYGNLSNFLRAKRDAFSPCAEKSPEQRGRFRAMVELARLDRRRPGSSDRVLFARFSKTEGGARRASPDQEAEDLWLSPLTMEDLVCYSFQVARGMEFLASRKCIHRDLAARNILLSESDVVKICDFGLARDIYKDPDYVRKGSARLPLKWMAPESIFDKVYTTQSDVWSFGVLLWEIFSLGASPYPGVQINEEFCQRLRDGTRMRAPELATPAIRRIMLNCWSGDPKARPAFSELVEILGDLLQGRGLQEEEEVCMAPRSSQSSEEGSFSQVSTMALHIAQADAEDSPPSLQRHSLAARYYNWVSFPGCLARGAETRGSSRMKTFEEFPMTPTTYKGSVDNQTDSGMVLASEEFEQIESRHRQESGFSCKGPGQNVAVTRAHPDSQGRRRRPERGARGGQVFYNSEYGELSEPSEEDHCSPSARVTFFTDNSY

[5] = target: T5, PKD1 (Homo sapiens, UniProt Q15139); test: recombinant kinase assay (IMAP fluorescence polarization, TAMRA-peptide)
T5 construct: gene PRKD1
T5 sequence (Q15139 1-912): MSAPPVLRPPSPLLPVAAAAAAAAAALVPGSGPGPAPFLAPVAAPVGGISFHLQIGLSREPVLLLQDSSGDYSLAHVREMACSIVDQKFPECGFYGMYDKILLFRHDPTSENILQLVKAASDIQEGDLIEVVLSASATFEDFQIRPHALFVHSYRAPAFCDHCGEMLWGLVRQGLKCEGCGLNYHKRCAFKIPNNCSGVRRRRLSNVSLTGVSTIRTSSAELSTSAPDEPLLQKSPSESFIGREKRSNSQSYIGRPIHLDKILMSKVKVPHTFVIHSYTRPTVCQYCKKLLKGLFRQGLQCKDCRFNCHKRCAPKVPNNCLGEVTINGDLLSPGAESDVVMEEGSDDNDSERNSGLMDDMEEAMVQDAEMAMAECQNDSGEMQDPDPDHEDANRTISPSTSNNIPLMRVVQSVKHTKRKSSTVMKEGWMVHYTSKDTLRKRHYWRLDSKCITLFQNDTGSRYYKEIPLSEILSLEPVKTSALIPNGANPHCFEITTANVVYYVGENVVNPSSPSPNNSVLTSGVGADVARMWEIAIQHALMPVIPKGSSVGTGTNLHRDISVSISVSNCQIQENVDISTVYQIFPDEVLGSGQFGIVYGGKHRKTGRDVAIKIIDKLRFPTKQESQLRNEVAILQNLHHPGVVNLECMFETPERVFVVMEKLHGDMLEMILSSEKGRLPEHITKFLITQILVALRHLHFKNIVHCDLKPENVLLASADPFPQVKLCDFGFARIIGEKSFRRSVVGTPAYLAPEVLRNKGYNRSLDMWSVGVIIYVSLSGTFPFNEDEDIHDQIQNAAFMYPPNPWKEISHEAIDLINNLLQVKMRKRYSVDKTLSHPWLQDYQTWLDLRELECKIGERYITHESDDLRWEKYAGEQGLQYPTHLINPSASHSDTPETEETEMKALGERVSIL

T1 sequence (P17948 27-1338): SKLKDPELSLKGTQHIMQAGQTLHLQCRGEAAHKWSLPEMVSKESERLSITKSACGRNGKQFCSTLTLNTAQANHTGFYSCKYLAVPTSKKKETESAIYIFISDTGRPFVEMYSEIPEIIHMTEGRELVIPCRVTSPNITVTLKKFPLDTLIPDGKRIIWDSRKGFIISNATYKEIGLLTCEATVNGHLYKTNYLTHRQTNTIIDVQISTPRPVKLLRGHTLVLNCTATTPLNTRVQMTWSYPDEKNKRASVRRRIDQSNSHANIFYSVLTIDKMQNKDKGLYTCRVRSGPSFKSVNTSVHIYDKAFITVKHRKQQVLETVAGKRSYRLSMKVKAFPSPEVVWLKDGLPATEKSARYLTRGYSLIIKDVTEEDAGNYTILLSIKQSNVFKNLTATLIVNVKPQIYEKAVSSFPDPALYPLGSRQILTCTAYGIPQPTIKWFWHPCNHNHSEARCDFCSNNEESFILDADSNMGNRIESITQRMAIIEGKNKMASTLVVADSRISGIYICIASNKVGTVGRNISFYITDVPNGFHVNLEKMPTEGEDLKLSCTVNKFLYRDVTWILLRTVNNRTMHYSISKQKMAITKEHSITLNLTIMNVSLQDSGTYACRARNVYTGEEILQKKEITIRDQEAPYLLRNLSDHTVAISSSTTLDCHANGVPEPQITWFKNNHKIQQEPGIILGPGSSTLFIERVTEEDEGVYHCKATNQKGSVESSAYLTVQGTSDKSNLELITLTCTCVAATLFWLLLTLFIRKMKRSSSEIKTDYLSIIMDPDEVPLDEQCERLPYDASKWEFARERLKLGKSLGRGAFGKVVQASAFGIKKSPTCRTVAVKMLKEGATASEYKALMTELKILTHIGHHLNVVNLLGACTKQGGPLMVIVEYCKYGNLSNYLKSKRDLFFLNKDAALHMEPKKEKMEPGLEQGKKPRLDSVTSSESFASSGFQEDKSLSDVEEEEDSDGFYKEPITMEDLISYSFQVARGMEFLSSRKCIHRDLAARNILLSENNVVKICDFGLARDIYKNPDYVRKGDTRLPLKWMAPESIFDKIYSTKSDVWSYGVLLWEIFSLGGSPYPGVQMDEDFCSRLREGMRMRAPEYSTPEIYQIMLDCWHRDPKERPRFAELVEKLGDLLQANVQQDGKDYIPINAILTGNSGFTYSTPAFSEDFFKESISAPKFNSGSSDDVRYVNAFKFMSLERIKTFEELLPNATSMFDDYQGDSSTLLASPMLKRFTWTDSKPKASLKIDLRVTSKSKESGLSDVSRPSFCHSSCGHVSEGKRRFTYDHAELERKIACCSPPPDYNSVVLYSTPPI

Compound: CCn1c(=O)ccc2cnc(Nc3ccc(N4CCN(C)CC4)cc3)nc21 [VCC251801]
- recombinant kinase assay (ProQinase) at single 1 μM concentration [1]: In this selectivity study, VCC251801 blocked both VEGFR1 and VEGFR3 activation
- kinase selectivity study (SignalChem) at single 5 μM concentration [2]: it showed moderate inhibitory effect against the other PKD isoform, PKD2
- IC50 [3]: 69 nM
- recombinant kinase assay (ProQinase) at single 1 μM concentration [4]: In this selectivity study, VCC251801 blocked both VEGFR1 and VEGFR3 activation
- IC50 [5]: 28 nM

From PMC4396990, “Targeting Vascular Endothelial Growth Factor Receptor 2 and Protein Kinase D1 Related Pathways by a Multiple Kinase Inhibitor in Angiogenesis and Inflammation Related Processes In Vitro” (PLoS ONE, 2015)
